Laboratory results as given in publication PMC4844309, “Identification of a Bioactive Compound against Adult T-cell Leukaemia from Bitter Gourd Seeds” (Plants, 2013).
pIC50: −log10 of the molar value. Where two headings read alike, the source gives them in different places.

Key:
[1] = test system: ED cells; experiment: ATL cell proliferation assay (WST-8), ED cells; format: cell-based, human; settings: read-out: IC50 (inhibition of cell proliferation), ED
Experimental: (§1) ED cells were kindly provided by Dr. M. Maeda (Kyoto University, Kyoto, Japan) and Su9T01 cells were kindly provided by Dr. N. Arima (Kagoshima University, Kagoshima, Japan). The test compounds were dissolved in dimethyl sulfoxide and subjected to assay screening. The method of ATL assay is described in a previous report. IC50 calculation was some curve fitted onto the determined proliferation inhibition points.

[2] = test system: Su9T01 cells; experiment: ATL cell proliferation assay (WST-8), Su9T01 cells; format: cell-based, human; settings: read-out: IC50 (inhibition of cell proliferation), Su9T01
Experimental: as §1

[3] = test system: phytohemagglutinin-activated human peripheral blood mononuclear cells (PBMC); experiment: cells; settings: read-out: IC50 (inhibition of PBMC proliferation)
Experimental: as §1

[4] = test system: HL-60 cells; design: method as in PMID 22654956, PMID 18959405; settings: human acute myelogenous leukemia cells; cited from earlier work
[5] = ED cells, 72 h incubation in RPMI-1640, WST-8 assay
[6] = Su9T01 cells, 72 h incubation in RPMI-1640, WST-8 assay
[7] = Homo sapiens, ED cells, 72 h incubation in RPMI-1640, WST-8 assay
[8] = Homo sapiens, Su9T01 cells, 72 h incubation in RPMI-1640, WST-8 assay

CCCCCCCC/C=C/CCCCCCCC(=O)O [elaidic acid]
pIC50 ([1]; Homo sapiens, 72 h): < 3.30 | pIC50 ([2]; Homo sapiens, 72 h): < 3.30

Epigallocatechin-3-gallate [EGCG]
pIC50 [1, 5]: 3.82 | pIC50 [2, 6]: 3.78

CCCC/C=C/C=C/C=C\CCCCCCCC(=O)O [α-ESA, α-Eleostearic acid]
pIC50 ([1]; Homo sapiens, 72 h): 5.05 | pIC50 [3]: 4.51 | Anti-leukemic potential in HL-60 cells [4]: anti-leukemic potential | pIC50 ([2]; Homo sapiens, 72 h): 4.53

CCCCC/C=C\C/C=C\CCCCCCCC(=O)O [linoleic acid]
pIC50 [1, 7]: 4.00 | pIC50 [2, 8]: 3.74

CCCCCCCCCCCCCCCCCC(=O)O [stearic acid, Stearic acid]
pIC50 [2, 8]: < 3.30

CCCCC/C=C\C/C=C\C/C=C\CCCCC(=O)O [γ-linolenic acid, γ-Linolenic acid]
pIC50 [1, 7]: 4.21 | pIC50 [2, 8]: 3.76

CC/C=C\C/C=C\C/C=C\CCCCCCCC(=O)O [α-linolenic acid]
pIC50 [1, 5]: 3.89 | pIC50 [2, 6]: 3.78
